Data published in PMC9368227, “Investigation of Radiotracer Metabolic Stability In Vitro with CYP-Overexpressing Hepatoma Cell Lines” (Cells, 2022).
“Also recorded” adds a separate entry of the source.

Assays:
[1] = Radiotracer incubation in buffer only (control, without any cell line), radio-TLC; type: in vitro ADME
Method: HepG2 cells were cultured in DMEM GlutaMax (Gibco, Paisley, UK) with 10% fetal calf serum (FCS) and with selective antibiotics (penicillin/streptomycin for wildtype, Zeocin (InvivoGen, San Diego, CA, USA) for CYP1A2, and Blasticidin (Gibco, Carlsbad, CA, USA) for CYP2C19 and CYP3A4 cultures). As a negative control, cultures of CHO cultivated in Ham’s F-12 medium (Gibco) with 10% FCS and 2 mM glutamine were added for the radiotracer experiments. Cells were handled under a laminar flow hood (Thermo Scientific^TM Safe 2020, Langenselbold, Germany) and were split once or twice a week by trypsinization. Cell cultures were stored horizontally in a humidified incubator (Heracell240i) at 37 °C and 5% CO2. During the time of experimental work, the utilized cell lines were regularly checked for mycoplasma. Cells were seeded in duplicates into a 96-well plate (CellStar®) with a density of 3 × 10^5 cells/well and cultured until the next day at 37 °C and 5% CO2. Cell density was determined with a cell counter (CASY® Model TT from Schärfe System, Reutlingen, Germany). Before the addition of substrates, cells were washed twice with Krebs–Henseleit buffer (KHB). The HEPES-supplemented Krebs–Henseleit buffer (pH 7.4, KHB) was freshly prepared using HEPES (5.95 g/L), D-glucose (2.0 g/L), magnesium sulfate (0.141 g/L), potassium dihydrogenphosphate (0.16 g/L), potassium chloride (0.35 g/L), sodium chloride (6.9 g/L), calcium chloride dihydrate (0.373 g/L), and sodium bicarbonate (2.1 g/L), followed by adjustment to pH 7.4 with NaOH. […]
(§1) Incubations with radiotracer compounds were conducted, on the one hand, with radioactive ^18F-labeled compounds alone (time dependency) and, on the other hand, in the presence of 50 µM nonradioactive reference (carrier addition). For the investigation of a time-dependent metabolite formation, 2 µL aliquots were withdrawn from the supernatant, directly spotted onto the TLC plate, and analyzed as described above. […]

[2] = test system: human liver microsomes (HLMs); assay: Microsome assay, human liver microsomes; type: in vitro ADME; details: for Amount of intact tracer: radio-TLC
Method: The stability of [^18F]1 toward liver microsomes was analyzed under oxidative conditions with MLMs (MSMCP, Lot: MS046-C) and HLMs (HMMCPL; Lot: PL050E-B) according to a previously described procedure. In brief, 12.5 µL of the respective microsomes (final 1 mg/mL) were mixed with 110.4 µL of PBS, followed by the addition of 100 µL of [^18F]1 (with 5 MBq and 1% ethanol; final 0.4% ethanol) and 2.1 µL of reference compound (final concentration 50 µM 1), or an equivalent of DMSO. The resulting mixture was mixed at 37 °C for 5 min, and the reaction was then initiated by the addition of 25 µL of NADPH (final 2 mM). After 1 h incubation, the resulting samples were mixed with ice-cold ACN (1/4, v/v) and vortexed for 30 s, placed on ice for 4 min, and finally centrifuged at 13,200 rpm for 5 min at 4 °C. The supernatant was separated and used for further analysis by radio-HPLC (6–10 µL injection volume; System 1b with 25–75% gradient elution) and radio-TLC analysis (2 µL applied on TLC, analysis as described above).

[3] = test system: HepG2 CYP1A2; assay: Competitive coincubation of [18F]1 with competitors, HepG2 CYP1A2; details: 1 h; without any additional substance; 120–125 nM [18F]1
Method: (§2) Radio thin-layer chromatography (radio-TLC) was carried out on reversed-phase TLC plates (ALUGRAM RP-18W/UV254 from Macherey-Nagel, Düren, Germany) with a mobile phase of 45% ACN in water containing 0.1% trifluoroacetic acid. The samples (2 µL) were spotted onto the TLC plate. The line of origin and the front line were labeled with 1/5 of the sample activity concentration. To track the Rf value of the intact radiotracer, each TLC was spotted with the intact tracer as reference in the middle. Detection of the activity signals was achieved after 10–30 min development on radioluminographic imaging plates (FUJIFILM, Tokyo, Japan) and subsequent readout with Fuji BAS 5000® or Amersham™ Typhoon™ from GE Healthcare (Uppsala, Sweden). The resulting chromatographic profile was analyzed and integrated with the help of AIDA Image Analysis Software (version 5.1). For data depiction, the fraction of each species (intact radiotracer, metabolite, [^18F]fluoride) was plotted.
(§3) Incubations were conducted for up to 2 h in a 96-well plate in KHB with a total incubation volume of 50 µL and an ethanol concentration of 0.4%. For the incubation with radiotracers, an activity of 100–200 kBq/well at the start of the experiment was used.
(§4) Our last interest within this study was to test if the tracer itself could function as an indicator for the conversion of other substrates acting via inhibition of or competition with the CYP enzymes. In this regard, alternative substrates were added to the incubation mixtures with [^18F]1. The investigated substrates covered testosterone, caffeine, progesterone, compound 3, tebufelone, and RWJ63556 [44] (10 µM for all substances). Furthermore, the influence of testosterone on the metabolic turnover of [^18F]1 was investigated over a concentration range of 1–50 µM.
Figure 7 Coincubation of [^18F]1 and different competitors with (A) HepG2 CYP1A2 and (B) HepG2 CYP2C19. […] Each competitor/inhibitor was incubated with [^18F]1 for 1 h followed by radio-TLC analysis. Activity concentrations of 94–197 kBq/well (1.9–3.9 MBq/mL) were used at start of experiment, which correspond to a concentration of 120–125 nM. Statistical analysis performed with Dunnett’s multiple comparison (post hoc test) according to the intact tracer amount (* p < 0.05; *** p < 0.001; **** p < 0.0001; n = 4).

[4] = test system: HepG2 CYP2C19; assay: Competitive coincubation of [18F]1 with competitors, HepG2 CYP2C19; details: 1 h; without additional substances; 120–125 nM [18F]1
Method: as §2, §3, §4
Figure 7 Coincubation of [^18F]1 and different competitors with (A) HepG2 CYP1A2 and (B) HepG2 CYP2C19. […] Each competitor/inhibitor was incubated with [^18F]1 for 1 h followed by radio-TLC analysis. […]

[5] = test system: CHO (Chinese hamster ovary) cells; assay: Radiotracer metabolic stability, CHO cells (negative control), radio-TLC; type: in vitro ADME; details: up to 2 h
Method: HepG2 cells were cultured in DMEM GlutaMax (Gibco, Paisley, UK) with 10% fetal calf serum (FCS) and with selective antibiotics (penicillin/streptomycin for wildtype, Zeocin (InvivoGen, San Diego, CA, USA) for CYP1A2, and Blasticidin (Gibco, Carlsbad, CA, USA) for CYP2C19 and CYP3A4 cultures). As a negative control, cultures of CHO cultivated in Ham’s F-12 medium (Gibco) with 10% FCS and 2 mM glutamine were added for the radiotracer experiments. Cells were handled under a laminar flow hood (Thermo Scientific^TM Safe 2020, Langenselbold, Germany) and were split once or twice a week by trypsinization. Cell cultures were stored horizontally in a humidified incubator (Heracell240i) at 37 °C and 5% CO2. During the time of experimental work, the utilized cell lines were regularly checked for mycoplasma. […] Cell density was determined with a cell counter (CASY® Model TT from Schärfe System, Reutlingen, Germany). […]
as §1

[6] = test system: HepG2 wildtype; assay: Radiotracer metabolic stability, HepG2 wildtype, radio-TLC; type: in vitro ADME, human; details: up to 2 h
Method: CYP-overexpressing human hepatocellular carcinoma cells (HepG2) were previously generated on the basis of subcloning human CYP1A2 [18], CYP2C19 [20], and CYP3A4 [21] cDNA into a lentiviral expression vector. The cDNA expression in the resulting vector was controlled by the human cytomegalovirus (CMV) promoter. The lentivirus expression vectors were used to produce recombinant lentivirus particles according to standard methods to infect HepG2 cells. Infected cells were selected with 3 µg/mL blasticidin for CYP2C19 and CYP3A4 and 500 µg/mL zeocin for CYP1A2 overexpression 48 h after infection. Within 3–4 weeks, antibiotic-resistant cell colonies were picked to obtain single cell-derived HepG2 clones. For more detailed information on the generation procedure of CYP-overexpressing HepG2 cells, see Steinbrecht et al..
HepG2 cells were cultured in DMEM GlutaMax (Gibco, Paisley, UK) with 10% fetal calf serum (FCS) and with selective antibiotics (penicillin/streptomycin for wildtype, Zeocin (InvivoGen, San Diego, CA, USA) for CYP1A2, and Blasticidin (Gibco, Carlsbad, CA, USA) for CYP2C19 and CYP3A4 cultures). As a negative control, cultures of CHO cultivated in Ham’s F-12 medium (Gibco) with 10% FCS and 2 mM glutamine were added for the radiotracer experiments. […] Cell density was determined with a cell counter (CASY® Model TT from Schärfe System, Reutlingen, Germany). […]

Cc1ccc(-c2cc(C[18F])nn2-c2ccc(S(C)(=O)=O)cc2)cc1 [[^18F]1, 3-([^18F]fluoromethyl)-1-[4-(methylsulfonyl)phenyl]-5-(p-tolyl)-1H-pyrazole]
Metabolic turnover / stability of radiotracer (in words) ([1]; buffer only, up to 2 h, radio-TLC): no metabolic turnover | Defluorination without additional enzymes in the incubation buffer (KHB) ([1]; reference incubation without any cell lines): to a minor extent | Increase of intact tracer amount with carrier addition ([2]; 1 h, CA versus without carrier addition): sevenfold | Amount of intact tracer ([2]; 1 h, carrier-added (CA), 50 µM 1): 30.3% | Amount of intact tracer ([2]; 1 h, without carrier addition, 38 MBq/mL (931 nM), 1 mg/mL microsomes, NADPH): 4.2% | Formation of second metabolite (M2) ([2]; 1 h incubation): observed | Intact tracer [18F]1 remaining [3]: 33% | Intact tracer [18F]1 remaining [4]: 11% | Metabolic turnover / stability of radiotracer (in words) [5]: mainly intact radiotracer was found; also recorded: no metabolic turnover | Metabolic turnover / stability of radiotracer (in words) [6]: mainly intact radiotracer was found
